GI50 and TGI data for ten compounds are collected here from PubChem BioAssay (NCI).

Several values for one entry are separate records, joined by “and”; a condition that tells them apart may be missing. Equal values may be shown once.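 Tested at 5 concentrations; 48 h exposure; 96-well plates; endpoints linearly interpolated, else capped at highest concentration. At the GI50, growth is halved. Definition used: TGI = concentration required for complete inhibition of growth.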 Where only a bound is given, the exact number is not on record here.

Some test systems named below: SW-620 colon; EKVX NSCLC; OVCAR-8 ovarian; COLO 205 colon; HCT-116 colon; OVCAR-3 ovarian; OVCAR-4 ovarian; MOLT-4 leukemia; SK-MEL-2 melanoma; SNB-75 CNS.
What all share (assay): NCI-60 cell line screen, 48 h

Turning to `CCN(CC)CCNc1n[n+]([O-])c2cc([N+](=O)[O-])ccc2[n+]1[O-]`, the GI50 with SW-620 colon was 0.737 µM and 0.304 µM and 0.238 µM; in the assay on MOLT-4 leukemia it was 0.0833 µM and 0.0383 µM and 0.0339 µM; in the assay on SK-MEL-2 melanoma it was 1.39 µM and 0.639 µM and 0.575 µM; in the assay with SNB-75 CNS, 2.01 µM and 1.16 µM and 0.905 µM. Besides, the TGI with SW-620 colon was 3.14 µM and 2.45 µM and 2.33 µM; in the assay on EKVX NSCLC it was 8.38 µM and 5.78 µM and 5.3 µM; with OVCAR-8 ovarian, 1.99 µM and 1.7 µM and 1.53 µM; with COLO 205 colon, 2.5 µM and 1.74 µM and 2.12 µM; in the assay with HCT-116 colon, 2.79 µM and 2.39 µM and 2.3 µM; with OVCAR-3 ovarian, 3.15 µM and 3.02 µM and 3.73 µM. The TGI in the assay on OVCAR-4 ovarian is 3.78 µM and 5.62 µM and 6.49 µM; with MOLT-4 leukemia, 0.292 µM and 0.198 µM and 0.176 µM; in the assay with SK-MEL-2 melanoma, 3 µM and 2.02 µM and 2.88 µM; with SNB-75 CNS, 14.5 µM and 14.3 µM and 10 µM.

For `CNC(=O)OCc1nc(SSc2nc(COC(=O)NC)c(COC(=O)NC)n2C)n(C)c1COC(=O)NC`, the TGI in the assay with SW-620 colon, in the assay on EKVX NSCLC, with OVCAR-8 ovarian, with COLO 205 colon, with HCT-116 colon and in the assay with OVCAR-3 ovarian was more than 100 µM throughout. Moreover, the TGI with OVCAR-4 ovarian, in the assay on MOLT-4 leukemia, in the assay with SK-MEL-2 melanoma and with SNB-75 CNS was more than 100 µM each time.

As to `C[C@]12CCc3nc(Nc4ccc(O)cc4)sc3C1=CC[C@@H]1[C@@H]2CC[C@]2(C)/C(=N/NC(N)=S)CC[C@@H]12`, the GI50 in the assay on SW-620 colon was 1.29 µM; in the assay with EKVX NSCLC it was 1.57 µM; with OVCAR-8 ovarian, 1.74 µM; in the assay on COLO 205 colon, 1.56 µM; in the assay with HCT-116 colon it was 1.15 µM; in the assay on OVCAR-3 ovarian it was 1.56 µM. The GI50 was 1.6 µM in the assay with OVCAR-4 ovarian, 0.47 µM with MOLT-4 leukemia, 1.69 µM with SK-MEL-2 melanoma and 0.68 µM with SNB-75 CNS. The TGI in the assay on SW-620 colon was determined as 3.26 µM; in the assay with EKVX NSCLC, 3.61 µM; in the assay with OVCAR-8 ovarian, 4.55 µM; in the assay on COLO 205 colon it was 3.39 µM; in the assay on HCT-116 colon it was 2.57 µM; with OVCAR-3 ovarian it was 3.12 µM. Besides, the TGI with OVCAR-4 ovarian came out at 3.43 µM; in the assay with MOLT-4 leukemia, 3.39 µM; in the assay on SK-MEL-2 melanoma, 3.52 µM; with SNB-75 CNS, 2.46 µM.

With `CO[C@H]1C(=O)[C@]2(C)[C@@H](OC)C[C@H]3OC[C@@]3(OC(C)=O)[C@H]2[C@H](OC(=O)c2ccccc2)[C@]2(O)C[C@H](OC(=O)[C@H](O)[C@@H](NC(=O)OC(C)(C)C)c3ccccc3)C(C)=C1C2(C)C`, the GI50 in the assay with SW-620 colon was less than 0.01 µM; in the assay on EKVX NSCLC, 0.425 µM; in the assay on OVCAR-8 ovarian, less than 0.01 µM; in the assay on COLO 205 colon, less than 0.01 µM; with HCT-116 colon, less than 0.01 µM; with OVCAR-3 ovarian, less than 0.01 µM. The GI50 with MOLT-4 leukemia is less than 0.0114 µM; with SK-MEL-2 melanoma, less than 0.01 µM; in the assay on SNB-75 CNS, less than 0.01 µM. Further, the TGI in the assay with SW-620 colon is more than 100 µM; in the assay with EKVX NSCLC, more than 100 µM; in the assay with OVCAR-8 ovarian, more than 100 µM; in the assay with COLO 205 colon, 0.0103 µM; in the assay with HCT-116 colon, 21.2 µM; in the assay on OVCAR-3 ovarian, less than 0.01 µM. Moreover, the TGI in the assay with OVCAR-4 ovarian was more than 77.1 µM; in the assay on MOLT-4 leukemia, 27.8 µM; in the assay on SK-MEL-2 melanoma it was 0.973 µM; in the assay on SNB-75 CNS, less than 0.01 µM.

For `CC[n+]1c(-c2ccccc2)c2cc(N)ccc2c2ccc(N)cc21`, the GI50 is 1.05 µM with SW-620 colon; 0.695 µM and 1.37 µM and 2.94 µM with OVCAR-8 ovarian; 0.612 µM in the assay on COLO 205 colon; 1.71 µM in the assay with HCT-116 colon; 1.61 µM in the assay on OVCAR-3 ovarian; 0.705 µM with OVCAR-4 ovarian. Moreover, the GI50 in the assay with MOLT-4 leukemia was 2.77 µM; in the assay with SK-MEL-2 melanoma, 1.11 µM; in the assay with SNB-75 CNS, 1.29 µM. The TGI was 16.2 µM and 33.3 µM and 22.2 µM with SW-620 colon; 34.2 µM and 42.8 µM and > 100 µM in the assay with EKVX NSCLC; 12.2 µM and 16.2 µM and 33.2 µM with OVCAR-8 ovarian; 2.24 µM and 7.14 µM in the assay with COLO 205 colon; 12.7 µM and 25.3 µM and 26.6 µM with HCT-116 colon; 9.84 µM and 20.4 µM and 15 µM in the assay on OVCAR-3 ovarian. Moreover, the TGI was 3.99 µM and 29.5 µM and 36 µM in the assay with OVCAR-4 ovarian; 21.1 µM and 13 µM and 35.9 µM in the assay with MOLT-4 leukemia; 3.8 µM and 6.55 µM with SK-MEL-2 melanoma; 3.16 µM and 1.14 µM with SNB-75 CNS.

With `CCOC1c2nc3ccccc3nc2-c2ccccc2N1C(C)=O` (configuration not stated), the TGI in the assay with SW-620 colon, with EKVX NSCLC, in the assay with OVCAR-8 ovarian, in the assay on COLO 205 colon, in the assay on HCT-116 colon and with OVCAR-3 ovarian was more than 100 µM each time. The TGI with OVCAR-4 ovarian, in the assay with MOLT-4 leukemia, in the assay with SK-MEL-2 melanoma and with SNB-75 CNS was more than 100 µM each time.

On to `O=C1Nc2ccc(-c3cccnc3)cc2/C1=C/c1cc(Br)c(O)c(Br)c1`, for which the GI50 with SW-620 colon was 8.23 µM; in the assay with EKVX NSCLC, 10.2 µM; in the assay with OVCAR-8 ovarian it was 9.89 µM; in the assay on COLO 205 colon it was 11.8 µM; in the assay on HCT-116 colon, 6.54 µM; in the assay with OVCAR-3 ovarian, 5.05 µM. Further, the GI50 with OVCAR-4 ovarian was 14.8 µM; in the assay with MOLT-4 leukemia it was 8.04 µM; with SK-MEL-2 melanoma, 3.11 µM; in the assay with SNB-75 CNS it was more than 13 µM. Further, the TGI in the assay on SW-620 colon is more than 25 µM; in the assay on EKVX NSCLC, more than 25 µM; with OVCAR-8 ovarian, more than 25 µM; in the assay on COLO 205 colon, more than 25 µM; in the assay with HCT-116 colon, more than 25 µM; in the assay with OVCAR-3 ovarian, 12.8 µM. In addition, the TGI in the assay with OVCAR-4 ovarian was more than 25 µM; in the assay with MOLT-4 leukemia, more than 25 µM; in the assay on SK-MEL-2 melanoma, 6.85 µM; in the assay with SNB-75 CNS, more than 25 µM.

Consider `O=C(O)c1ccccc1C(=O)c1ccco1`, for which the TGI with SW-620 colon, in the assay on EKVX NSCLC, with OVCAR-8 ovarian, with COLO 205 colon, in the assay with HCT-116 colon and in the assay on OVCAR-3 ovarian was more than 100 µM in each case. In addition, the TGI in the assay with OVCAR-4 ovarian, in the assay on MOLT-4 leukemia, in the assay with SK-MEL-2 melanoma and with SNB-75 CNS was more than 100 µM each time.

Consider `COC(=O)C1CCC(C)CC1=O` (configuration not stated), for which the TGI with SW-620 colon, in the assay on EKVX NSCLC, in the assay with OVCAR-8 ovarian, in the assay on COLO 205 colon, with HCT-116 colon and with OVCAR-3 ovarian was more than 100 µM in each case. The TGI with OVCAR-4 ovarian, in the assay on MOLT-4 leukemia, with SK-MEL-2 melanoma and with SNB-75 CNS was more than 100 µM each time.

As to `C[n+]1cn(CC(=O)c2ccccc2)c(C(N)=O)c1N`, the TGI in the assay with SW-620 colon was 29.4 µM; with EKVX NSCLC, more than 100 µM; with OVCAR-8 ovarian, more than 100 µM; in the assay with COLO 205 colon, more than 100 µM; in the assay on HCT-116 colon, 74.1 µM; in the assay on OVCAR-3 ovarian, more than 100 µM. For the same compound, the TGI in the assay with OVCAR-4 ovarian, with MOLT-4 leukemia, in the assay on SK-MEL-2 melanoma and in the assay with SNB-75 CNS was more than 100 µM in each case.
